Assay results as given in US10544112B2, “Identification of ebsulfur analogues with broad-spectrum antifungal activity” (priority 2017, dated 2020).
≈ marks a conversion by molar mass, not a printed value. Read-outs that look alike come from different tables or passages of the source. Marks after values point to notes of the source that are not given here.

Columns and labels:
[1] = system: C. albicans ATCC MYA-2310(S) (strain E); test: Antifungal MIC determination (CLSI M27-A3, 96-well); type: cell-based, Candida albicans; conditions: for MIC-0: strain E, compounds 1-4n and AmB, 48 h, RPMI 1640
In short: (§1)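 A modified CLSI M27-A3 protocol is used, with final compound levels from 12.5 to 0.02 μg/mL in two-fold steps. Cells are incubated at 5×10^3 CFU/mL in buffered RPMI 1640 at 35° C for 48 h.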

[2] = system: C. albicans ATCC MYA-2876(S) (strain C); test: as above; type: cell-based, Candida albicans; conditions: for MIC-0: strain C, compounds 1-4n and AmB, 48 h, RPMI 1640
In short: as §1

[3] = system: C. albicans ATCC 64124 (strain B); type: cell-based, Candida albicans
Experimental: The efficiency of the compounds to kill C. albicans ATCC 64124 (strain B) was monitored using a previously published protocol. The cell suspensions were prepared to achieve an inoculum of approximately 1-4×10^5 CFU/mL in RPMI 1640 medium at 35° C. […] After fungal cell addition, at 0, 3, 6, 9, 12, and 24 h, the tubes were vortexed and 100 μL aliquots were removed from each solution, spread onto PDA plates, and incubated at 35° C. Colony counts were determined after 24 h of incubation. The experiments were performed in duplicate (FIG. 2).
Time-kill assays with ebsulfur (2a) and analogue 3a (FIG. 2) were performed to determine the rate of fungicidal activity of the compounds if the invention.

[4] = system: Candida krusei ATCC 6258 (strain I); test: Antifungal MIC determination (CLSI M27-A3, 96-well); type: cell-based; conditions: for MIC-0: compounds 1-4n and AmB, 48 h, RPMI 1640; for MIC: Pichia kudriavzevii
In short: as §1

[5] = system: Candida parapsilosis ATCC 22019 (strain J); test: as above; type: cell-based; conditions: for MIC-0: compounds 1-4n and AmB, 48 h, RPMI 1640; for MIC: Lodderomyces parapsilosis
In short: as §1

[6] = system: Candida glabrata ATCC 2001 (strain H); test: as above; type: cell-based; conditions: for MIC-0: compounds 1-4n and AmB, 48 h, RPMI 1640; for MIC: Nakaseomyces glabratus
In short: as §1

[7] = system: Candida albicans ATCC 10231 (strain A); test: as above; type: cell-based; conditions: for MIC-0: strain A, compounds 1-4n and AmB, 48 h, RPMI 1640
In short: as §1

[8] = system: Aspergillus flavus ATCC MYA-3631 (strain K); test: Antifungal MIC determination, filamentous fungi spores; type: cell-based; conditions: all compounds; for MIC: Aspergillus flavus, read-out: MIC-0
In short: (§2)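 Broth microdilution per CLSI M27-A3 (modified) in RPMI 1640 buffered to pH 7.0 with 0.165 M MOPS; yeast inocula grown in PDB, Aspergillus spores from PDA cultures at 25° C. Final drug 12.5-0.02 μg/mL, inoculum 5×10^3 CFU/mL; incubation 48 h at 35° C.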

[9] = system: Aspergillus terreus ATCC MYA-3633 (strain M); test: as above; type: cell-based; conditions: for MIC: Aspergillus terreus, read-out: MIC-0
In short: as §2

[10] = system: Aspergillus nidulans ATCC 38163 (strain L); test: as above; type: cell-based; conditions: for MIC-0: strain L, spores
In short: as §2

[11] = system: C. albicans ATCC 90819(R) (strain D); test: microbe, parasite or virus in culture; type: cell-based, Candida albicans; conditions: for MIC-0: strain D, compounds 1-4n and AmB, 48 h, RPMI 1640
In short: as §1

[12] = system: C. albicans ATCC 64124 (strain B); test: microbe, parasite or virus in culture; type: cell-based, Candida albicans; conditions: for MIC-0: strain B, compounds 1-4n and AmB, 48 h, RPMI 1640
In short: as §1

[13] = system: C. albicans ATCC MYA-1237(R) (strain F); test: microbe, parasite or virus in culture; type: cell-based, Candida albicans; conditions: for MIC-0: strain F, compounds 1-4n and AmB, 48 h, RPMI 1640
In short: as §1

[14] = system: C. albicans ATCC MYA-1003(R) (strain G); test: microbe, parasite or virus in culture; type: cell-based, Candida albicans; conditions: for MIC-0: strain G, compounds 1-4n and AmB, 48 h, RPMI 1640
In short: as §1

[15] = system: C. albicans ATCC 10231 (strain A); test: ROS production assay (DCFH-DA); type: cell-based, Candida albicans; conditions: 1× and 2× MIC (H2O2 1 mM), 1-h treatment
Experimental: ROS production assay was performed as previously described with minor modifications. […] Once entering the cells, the DCFH-DA probe is first hydrolyzed to the non-fluorescent 2′,7′-dichlorodihydrofluorescein (DCFH) by cellular esterases. […] A colony of C. albicans ATCC 10231 (strain A) was used to inoculate 5 mL of PDB in a Falcon tube and grown overnight at 35° C. at 200 rpm.
Thus, whether the compounds of the invention would also induce ROS against C. albicans was studied. […] 2′,7′-dichlorodihydrofluorescin diacetate (DCFH-DA) was then used to detect and visualize ROS production (FIG. 5). As a positive control, cells were treated with H2O2, which is an inducer of hydroxyl radical formation.

[16] = Solubility in the RPMI 1640 medium used for MIC determination; conditions: medium of MIC determination
[17] = system: Aspergillus strains (K-M); test: Antifungal MIC, summary over Aspergillus strains; type: cell-based; conditions: spores
Experimental: Fungal MIC determination experiments were performed using untreated 96-well plates (Corning). Cells were counted either by using a hemocytometer (Hausser Scientific, Horsham, Pa., USA) or by measuring optical density at attenuance of 600 nm (OD600) by using a Genesys 20 spectrophotometer (Thermo Scientific, Waltham, Mass., USA). Spectrophotometric and colorimetric measurements in 96-well plates were performed using a SpectraMax M5 spectrometer (Molecular Devices, Sunnyvale, Calif., USA).
Yeast strains Candida albicans ATCC 10231 (strain A), C. albicans ATCC 64124 (strain B), and C. albicans ATCC MYA-2876(S) (strain C) were kindly provided by Dr. Jon Y. Takemoto (Utah State University, Logan, UT, USA). C. albicans ATCC MYA-90819(R) (strain D), C. albicans ATCC MYA-2310(S) (strain E), C. albicans ATCC 1237(R) (strain F), C. albicans ATCC MYA-1003(R) (strain G), Candida glabrata ATCC 2001 (strain H), Candida krusei ATCC 6258 (strain I), and Candida parapsilosis ATCC 22019 (strain J) were obtained from the American Type Culture Collection (ATCC, Manassas, Va., USA). […]
The MIC values against fungal strains were determined based on a previously published protocol. MIC values for ebsulfur (2a) analogues against fungal cells were evaluated in 96-well plates as described in the CLSI document M27-A3 with minor modifications. […]

[18] = system: C. albicans ATCC MYA-1237(R) (strain F); conditions: azoles, previously reported (Shrestha 2015); cited from earlier work
[19] = system: C. albicans ATCC 64124 (strain B); conditions: azoles, previously reported (Shrestha 2015); cited from earlier work
[20] = system: C. albicans ATCC MYA-1003(R) (strain G); conditions: azoles, previously reported (Shrestha 2015); cited from earlier work
[21] = system: Aspergillus nidulans ATCC 38163 (strain L); conditions: azoles, previously reported (Shrestha 2015); cited from earlier work
[22] = system: Candida albicans ATCC 10231 (strain A); conditions: azoles, previously reported (Shrestha 2015); cited from earlier work
[23] = system: C. albicans ATCC MYA-2876(S) (strain C); conditions: azoles, previously reported (Shrestha 2015); cited from earlier work
[24] = system: C. albicans ATCC 90819(R) (strain D); conditions: azoles, previously reported (Shrestha 2015); cited from earlier work
[25] = system: C. albicans ATCC MYA-2310(S) (strain E); conditions: azoles, previously reported (Shrestha 2015); cited from earlier work
[26] = strain M, all compounds, spores
[27] = ATCC6258, strain I, azoles, read-out: MIC-2
[28] = ATCC22019, strain J, azoles, read-out: MIC-2
[29] = ATCC2001, strain H, azoles, read-out: MIC-2
[30] = Candida albicans, read-out: MIC-2

## O=c1c2ccccc2[se]n1-c1ccccc1 [Compound 1, ebselen, reference compound]
[1]
  MIC-0: 3.13 µg/mL (≈ 11.4 µM)
[2]
  MIC-0: 12.5 µg/mL (≈ 45.6 µM)
[3]; 1× MIC
  fungicidal or fungistatic effect: potent fungicidal activity
  time of complete fungal cell death: 6 h
[3]; 2× MIC
  time from which completely fungicidal: 3 h
[4]; strain I
  MIC-0: 1.56 µg/mL (≈ 5.69 µM)
[5]; strain J
  MIC-0: 6.25 µg/mL (≈ 22.8 µM)
[6]; strain H
  MIC-0: 1.56 µg/mL (≈ 5.69 µM)
[7]
  MIC-0: 12.5 µg/mL (≈ 45.6 µM)
[8]
  MIC-0: 6.25 µg/mL (≈ 22.8 µM)
[9]; [26]
  MIC-0: 1.56 µg/mL (≈ 5.69 µM)
[10]
  MIC-0: 1.56 µg/mL (≈ 5.69 µM)
[11]
  MIC-0: 1.56 µg/mL (≈ 5.69 µM)
[12]
  MIC-0: 12.5 µg/mL (≈ 45.6 µM)
[13]
  MIC-0: >12.5 µg/mL
[14]
  MIC-0: 12.5 µg/mL (≈ 45.6 µM)
[15]
  ROS induction (DCFH-DA fluorescence): highly fluorescent

## O=c1c2ccccc2sn1-c1ccc2ccccc2n1 [Compound 2o]
[16]
  solubility in the RPMI 1640 medium: solubility issues

## O=c1c2ccccc2sn1C1CCCCCCC1 [Compound 3n]
[1]
  MIC-0: 6.25 µg/mL (≈ 23.9 µM)
[2]
  MIC-0: 6.25 µg/mL (≈ 23.9 µM)
[4]; strain I
  MIC-0: 0.39 µg/mL (≈ 1.49 µM)
[5]; strain J
  MIC-0: 3.13 µg/mL (≈ 12 µM)
[6]; strain H
  MIC-0: 3.13 µg/mL (≈ 12 µM)
[7]
  MIC-0: 3.13 µg/mL (≈ 12 µM)
[8]
  MIC-0: ≤0.02 µg/mL
[9]; [26]
  MIC-0: ≤0.02 µg/mL
[10]
  MIC-0: 0.05 µg/mL (≈ 0.191 µM)
[11]
  MIC-0: 6.25 µg/mL (≈ 23.9 µM)
[12]
  MIC-0: 3.13 µg/mL (≈ 12 µM)
[13]
  MIC-0: 6.25 µg/mL (≈ 23.9 µM)
[14]
  MIC-0: 6.25 µg/mL (≈ 23.9 µM)
[17]
  MIC against Aspergillus strains K-M, range: ≤0.02 to 0.05 µg/mL

## O=c1c2ccccc2sn1C12CC3CC(CC(C3)C1)C2 [Compound 3o]
[16]
  solubility in the RPMI 1640 medium: not soluble

## OC(Cn1cncn1)(Cn1cncn1)c1ccc(F)cc1F [FLC, fluconazole]
[18]
  MIC-2: 62.5^a μg/mL
[19]
  MIC-2: >125^a μg/mL
[20]
  MIC-2: 62.5^a μg/mL
[4]; [27]
  MIC: > 31.2 µg/mL
[5]; [28]
  MIC: 1.95 µg/mL (≈ 6.37 µM)
[6]; [29]
  MIC: > 31.2 µg/mL
[21]
  MIC-0: 6.25^a μg/mL
[8]
  MIC: 6.25 µg/mL (≈ 20.4 µM)
[22]
  MIC-2: 62.5^a μg/mL
[23]
  MIC-2: 15.6^a μg/mL
[24]
  MIC-2: >125^a μg/mL
[25]
  MIC-2: >125^a μg/mL

## CC[C@@H]([C@H](C)O)n1ncn(-c2ccc(N3CCN(c4ccc(OC[C@@H]5CO[C@@](Cn6cncn6)(c6ccc(F)cc6F)C5)cc4)CC3)cc2)c1=O [POS, posaconazole]
[18]
  MIC-2: 15.6^a μg/mL
[19]
  MIC-2: >62.5^a μg/mL
[20]
  MIC-2: 15.6^a μg/mL
[4]; [27]
  MIC: 0.06 µg/mL (≈ 0.0856 µM)
[5]; [28]
  MIC: < 0.03 µg/mL
[6]; [29]
  MIC: 0.12 µg/mL (≈ 0.171 µM)
[21]
  MIC-0: 0.195^a μg/mL
[8]
  MIC: 0.24 µg/mL (≈ 0.342 µM)
[9]; [26]
  MIC: 0.48 µg/mL (≈ 0.685 µM)
[22]
  MIC-2: 0.5^a μg/mL
[23]
  MIC-2: 7.8a μg/mL
[24]
  MIC-2: 31.2^a μg/mL
[25]
  MIC-2: 31.2^a μg/mL

## C[C@@H](c1ncncc1F)[C@](O)(Cn1cncn1)c1ccc(F)cc1F [VOR, voriconazole, reference compound]
[1]; [30]
  MIC: 1.95 µg/mL (≈ 5.58 µM)
[2]; [30]
  MIC: 0.975 µg/mL (≈ 2.79 µM)
[4]; ATCC6258, read-out: MIC-2
  MIC: 0.12 µg/mL (≈ 0.344 µM)
[5]; ATCC22019, read-out: MIC-2
  MIC: < 0.03 µg/mL
[6]; ATCC2001, read-out: MIC-2
  MIC: 0.06 µg/mL (≈ 0.172 µM)
[7]; Candida albicans, ATCC10231, read-out: MIC-2
  MIC: 7.8 µg/mL (≈ 22.3 µM)
[9]
  MIC: 0.12 µg/mL (≈ 0.344 µM)
[10]; Aspergillus nidulans, ATCC38163, read-out: MIC-0
  MIC: 0.03 µg/mL (≈ 0.0859 µM)
[11]; Candida albicans, ATCC90819, read-out: MIC-2
  MIC: 1.95 µg/mL (≈ 5.58 µM)
[12]; Candida albicans, ATCC64124, read-out: MIC-2
  MIC: > 31.2 µg/mL
[13]; [30]
  MIC: 0.975 µg/mL (≈ 2.79 µM)
[14]; [30]
  MIC: 7.8 µg/mL (≈ 22.3 µM)
[17]
  MIC against Aspergillus strains K-M, range: 0.03 to 0.24 µg/mL
